From ChEMBL document CHEMBL3856231 (J Med Chem, 2016) come the findings set out here.

Activity calls are given as the source filed them. The rule behind the calls is not given here.

Data set [1] in a line: Dose normalized AUC in cynomolgus monkey at 10 mg/kg, po by LC/MS/MS analysis. The format is ADME, organism-based, Macaca fascicularis. As to conditions: in vivo.
A further data set deals with Mus musculus. Description: Toxicity in SCID-Beige mouse xenografted with human HCC827 cells expressing activated FAK assessed as overt toxicity at 30 to 55 mg/kg, po bid administered for 28 days. The format is organism-based. As to conditions: in vivo, 672 h. A general note: A xenograft is tissue or cells of one species grown in another, often human tumour cells in immunodeficient mice.

A short description of data set [2]: Cmax in Sprague-Dawley rat plasma at 30 mg/kg, po by LC/MS/MS analysis. The format is ADME, organism-based. Set-up: dose 30 mg/kg, route oral.
Data set [3] can be described thus: (§1) Cytotoxicity against human NCI-H2228 cells expressing EML4-ALK assessed as cell growth inhibition. The format is functional, cell-based.
The subject of data set [4] is NCI-H2228. The description is as §1. It counts as functional, cell-based.
Data set [5] in a line: Half life in Sprague-Dawley rat at 1 mg/kg, iv by LC/MS/MS analysis. As to conditions: in vivo. The format is ADME, organism-based.
For data set [6], the system named is NCI-H2228. The data set can be described thus: Antitumor activity against human NCI-H2228 cells expressing EML4-ALK xenografted in SCID-Beige mouse assessed as reduction in tumor volume at 55 mg/kg, po bid administered for 11 days measured during compound dosing. The format is functional, organism-based.
Data set [7] in a line: Volume of distribution in cynomolgus monkey at 1 mg/kg, iv by LC/MS/MS analysis. The format is ADME, organism-based, Macaca fascicularis. As to conditions: in vivo.
Data set [8] is described as follows: Volume of distribution in Sprague-Dawley rat at 1 mg/kg, iv by LC/MS/MS analysis. It counts as ADME, organism-based. As to conditions: in vivo.
The nature of data set [9]: AUC (0 to infinity) in cynomolgus monkey at 1 mg/kg, iv by LC/MS/MS analysis. It counts as ADME, organism-based, Macaca fascicularis. On the set-up: dose 1 mg/kg, route intravenous, time infinity. As to conditions: in vivo.
The nature of data set [10]: Drug level in tumor of FAK expressing human CWR22 cells xenografted Nu/Nu mouse at 55 mg/kg, po administered as single dose measured at 2 hrs by LC-MS/MS analysis. As to conditions: read-out: Drug uptake. The format is ADME, organism-based, Neoplasm.
Data set [11] is described as follows: Drug level in tumor of NPM-ALK expressing human SUP-M2 cells xenografted mouse at 30 mg/kg, po administered as single dose measured at 6 hrs by LC-MS/MS analysis. The format is ADME, organism-based, Neoplasm. The settings on record: read-out: Drug uptake.

With `CNC(=O)c1ccccc1Nc1nc(Nc2ccc3c(c2OC)CCC[C@H](N2CCN(CCO)CC2)C3)ncc1Cl` [CEP-37440], the AUC/dose in data set [1] was 276 ng·h/mL. In the data set with Mus musculus, the Activity result is recorded as “Non-Toxic”. The compound also registered a Cmax in data set [2] of 2120 ng/g. Also, in data set [3], the IC50 was 2.9 µM. In addition, in the data set with NCI-H2228 [4], the “growth inhibition (GI)” value is “Dose-dependent effect”. In [5], this compound had a half-life of 2 h. The outcome in the data set on NCI-H2228 [6] was Active. In addition, the Vd in data set [7] is 13.2 L/kg; in [8], 0.8 L/kg. Also, the AUC(0-inf) in data set [9] amounted to 0.554 µg·h/mL. In addition, the concentration at 2 h in [10] was determined as 6070 ng/g. Also, in data set [11], the concentration at 6 h came to 6930 ng/g.

As usually defined, the Cmax is the maximum level reached in the sampled fluid or tissue. The IC50 is the midpoint of a concentration-inhibition curve. What is called half-life is the time in which the quantity being followed falls by half. As usually defined, the Vd is the apparent volume that relates the amount in the body to the concentration in plasma or blood. By AUC(0-inf) is commonly meant total exposure, with the tail of the curve extrapolated.
